{"source": "patent US11666565B2", "about": "“Treatment of cancer using a SMAD3 inhibitor” (The Chinese University of Hong Kong, priority 2012, dated 2023)", "key": {"melanoma (B16F10)": {"test_system": "melanoma (B16F10)", "details": "syngeneic mouse model, N=5", "description": "(§1) Therapeutic effect of SIS3 was tested in subcutaneously invasive mouse model of lung carcinoma and melanoma. Lucifase-labeled highly invasive mouse lung carcinoma cells (LLC-luc) and melanoma cells (B16F10-luc) were injected subcutaneously into genetically-identical C57/BL6 mice at a dose of 2 million cells in 200 ul PBS per mouse. Cancer growth, invasion, and metastasis were monitored by measuring tumor size, weight, and bioluminescent imaging weekly. After cancer was established at one week after implantation, tumor-bearing mice received intraperitoneally SIS3 at dosages of 2.5, 5, and 10 ug/Kg body weight daily for 2 weeks. Control animals received daily saline, instead of SIS3, and a group of tumor-bearing mice without any treatment (used as untreated controls) were also monitored. Five mice per group were used in this study. Mice were weighed and tumor size or metastasis was examined by live bioluminescent imaging weekly. The survival rate was recorded. All mice were euthanized 2 weeks after treatment for further examination by histology and tumor volume and weight, invasion, and metastasis."}, "lung carcinoma (LLC)": {"test_system": "lung carcinoma (LLC)", "description": "as §1"}}}
{"smiles": "COc1cc2c(cc1OC)CN(C(=O)/C=C/c1c(-c3ccccc3)n(C)c3ncccc13)CC2", "note": "[SIS3, (6,7-Dimethoxy-2-((2E)-3-(1-methyl-2-phenyl-1H-pyrrolo[2,3-b]pyridin-3-yl-prop-2-enoyl))-1,2,3,4-tetrahydroisoquinoline)]", "values": [{"measurement": "cancer weight", "setting": "melanoma (B16F10); subcutaneous melanoma B16F10, 3 million cells/mouse, FIG. 4", "result": "markedly lowering the cancer weight"}, {"measurement": "melanoma (B16F10) growth by live imaging analysis", "setting": "melanoma (B16F10); SIS3 intraperitoneally daily, 2.5, 5 and 10 ug/Kg body weight, FIG. 3", "result": "inhibits melanoma (B16F10) growth in a dosage-dependent manner"}, {"measurement": "detectability of cancers", "setting": "lung carcinoma (LLC); after 10 days treatment with SIS3 at doses of 5-10 μg/g body weight, N=5, FIG. 6", "result": "most of cancers become undetectable"}, {"measurement": "invasion into the cancer surrounding tissues and metastasis to lymph nodes, lung, liver, gastric and colon tissue", "setting": "lung carcinoma (LLC); lung carcinoma (LLC) mouse model, FIGS. 3-7", "result": "suppressed"}, {"measurement": "cancer growth as demonstrated by tumor weight", "setting": "lung carcinoma (LLC); subcutaneous LLC, 2 million cells/mouse, syngeneic mouse model, N=5, FIG. 7A", "result": "prevents cancer growth"}]}
